Data on 15 molecules can be found in ChEMBL document CHEMBL1145898, “Molecular docking studies of natural cholinesterase-inhibiting steroidal alkaloids from Sarcococca saligna” (J Med Chem, 2003).

Each structure is given as a SMILES string.

In assay [1] the target is T1, Acetylcholinesterase (Torpedo californica, UniProt P04058). The experiment in a line: In vitro binding affinity was determined against acetylcholinesterase from torpedo californica. The arrangement: species or system Tetronarce californica.
T1 sequence (P04058 whole entry): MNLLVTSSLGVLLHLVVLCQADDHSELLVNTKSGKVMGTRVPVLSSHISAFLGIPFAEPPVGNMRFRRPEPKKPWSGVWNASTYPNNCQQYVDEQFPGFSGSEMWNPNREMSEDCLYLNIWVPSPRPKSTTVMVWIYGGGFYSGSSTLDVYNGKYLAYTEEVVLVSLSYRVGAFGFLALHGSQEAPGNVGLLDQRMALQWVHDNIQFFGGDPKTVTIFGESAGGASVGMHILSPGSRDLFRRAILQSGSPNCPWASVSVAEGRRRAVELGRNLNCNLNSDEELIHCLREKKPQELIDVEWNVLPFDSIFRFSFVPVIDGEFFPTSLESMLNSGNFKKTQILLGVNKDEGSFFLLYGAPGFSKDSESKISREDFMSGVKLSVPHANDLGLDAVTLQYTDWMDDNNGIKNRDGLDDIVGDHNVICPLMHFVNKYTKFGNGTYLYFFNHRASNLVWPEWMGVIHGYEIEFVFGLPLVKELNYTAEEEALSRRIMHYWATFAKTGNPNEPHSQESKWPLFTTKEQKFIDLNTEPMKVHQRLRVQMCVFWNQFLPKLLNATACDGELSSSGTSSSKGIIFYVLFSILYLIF
Assay [2] deals with T1, Acetylcholinesterase. The experiment in a line: In vitro anticholinesterase activity was determined against acetylcholinesterase from Torpedo californica. The arrangement: species or system Tetronarce californica.

The term Ki denotes a measure of affinity in units of concentration, obtained from inhibition or displacement. A high value points to weaker binding. In turn, `C/C=C(\C)C(=O)N[C@H]1CC[C@@]2(C)C(=CC[C@H]3C4=CC[C@H]([C@H](C)N(C)C)[C@@]4(C)CC[C@@H]32)C1=O` returned a Ki on Acetylcholinesterase [1] of 2.65 µM.

Usually IC50 stands for the point on the concentration scale where inhibition reaches its midpoint. Lower therefore signals greater potency in that assay. With `CN[C@H]1CC[C@@]2(C)[C@@H](CC[C@@H]3[C@@H]2CC[C@]2(C)[C@@H]([C@H](C)N(C)C(C)=O)CC[C@@H]32)C1`, affinity on Acetylcholinesterase [1] was put at a Ki of 216 µM. The same molecule gave a half-inhibitory concentration (IC50) against Acetylcholinesterase [2] of 204 µM.

In turn, `C[C@@H]([C@H]1CC[C@H]2[C@@H]3CC[C@H]4C(=O)C(NC(=O)c5ccccc5)=CC[C@]4(C)[C@H]3CC[C@]12C)N(C)C` yielded a Ki at Acetylcholinesterase [1] of 3.03 µM. Moreover, on Acetylcholinesterase [2], the IC50 was found to be 5.2 µM.

In turn, `C/C=C(\C)C(=O)N[C@H]1CC[C@@]2(C)C(=CC[C@H]3[C@@H]4CC[C@H]([C@H](C)N(C)C)[C@@]4(C)CC[C@@H]32)C1=O` showed a Ki on Acetylcholinesterase [1] of 5.4 µM. The molecule also registered an IC50 against Acetylcholinesterase [2] of 7.1 µM.

Take `C/C=C(\C)C(=O)N[C@@H]1[C@H](OC(C)=O)[C@@H]2CC[C@@H]3[C@H](CC[C@]4(C)[C@@H]([C@H](C)N(C)C)CC[C@@H]34)[C@@]2(C)C[C@@H]1O`: the IC50 at Acetylcholinesterase [2] is 182 µM.

`C[C@@H]([C@H]1CC[C@H]2[C@@H]3CC[C@H]4C[C@@H](N(C)C(=O)/C=C/c5ccccc5)CC[C@]4(C)[C@H]3CC[C@]12C)N(C)C` [SALIGCINNAMIDE] showed a Ki on Acetylcholinesterase [1] of 12.2 µM. Besides, the half-inhibitory concentration (IC50) against Acetylcholinesterase [2] worked out at 19.9 µM.

On Acetylcholinesterase [1], `C/C(=C\C(=O)N(C)[C@H]1CC[C@@]2(C)[C@@H](CC[C@@H]3[C@@H]2CC[C@]2(C)[C@@H]([C@H](C)N(C)C)CC[C@@H]32)C1)C(C)C` showed a Ki of 4.1 µM.

Consider `C/C=C(\C)C(=O)N[C@@H]1[C@H](OC(C)=O)[C@@H]2CC[C@H]3C4=CC[C@H]([C@H](C)N(C)C)[C@@]4(C)CC[C@@H]3[C@@]2(C)C[C@@H]1O`, for which affinity at Acetylcholinesterase [1] was put at a Ki of 134 µM. Further, half-maximal inhibition at Acetylcholinesterase [2] (IC50) was put at 61.3 µM.

`C/C(=C\C(=O)N(C)[C@H]1CC[C@@]2(C)[C@@H](CC[C@@H]3[C@@H]2CC[C@]2(C)C([C@H](C)N(C)C)=CC[C@@H]32)C1)C(C)C`: at Acetylcholinesterase [1], the affinity, expressed as Ki, was 10.7 µM. This molecule also gave an IC50 against Acetylcholinesterase [2] of 6.2 µM.

For the molecule `CC(=O)N[C@H]1CC[C@@]2(C)[C@@H](CC[C@@H]3[C@@H]2CC[C@]2(C)[C@@H]([C@H](C)N(C)C)CC[C@@H]32)C1`, the Ki at Acetylcholinesterase [1] amounted to 90.3 µM. Moreover, at Acetylcholinesterase [2], half-maximal inhibition (IC50) was put at 69.9 µM.

Molecule `CC(=O)O[C@H]1[C@@H](NC(=O)C=C(C)C)CC[C@]2(C)[C@H]3CC[C@]4(C)[C@@H]([C@H](C)N(C)C)CC[C@H]4[C@@H]3CC[C@@H]12` showed a Ki at Acetylcholinesterase [1] of 17.6 µM. For the same molecule, 8.5 µM corresponded to half-maximal inhibition against Acetylcholinesterase [2] (IC50).

Molecule `C/C=C(\C)C(=O)N[C@@H]1C=C2CC[C@@H]3[C@H](CC[C@]4(C)C([C@H](C)N(C)C)=CC[C@@H]34)[C@@]2(C)C[C@H]1O` registered an IC50 against Acetylcholinesterase [2] of 185 µM.

As to `C[C@@H]([C@H]1CC[C@H]2[C@@H]3CC[C@H]4C[C@@H](NC(=O)c5ccccc5)[C@@H](O)C[C@]4(C)[C@H]3CC[C@]12C)N(C)C`, the half-maximal inhibitory concentration (IC50) at Acetylcholinesterase [2] is 78.2 µM.

`CC(=O)O[C@H]1[C@@H](NC(=O)c2ccccc2)[C@@H](O)C[C@]2(C)[C@H]3CC[C@]4(C)[C@@H]([C@H](C)N(C)C)CC[C@H]4[C@@H]3CC[C@@H]12`: the Ki on Acetylcholinesterase [1] turned out to be 126 µM. In addition, the half-inhibitory concentration (IC50) against Acetylcholinesterase [2] came out at 228 µM.

On Acetylcholinesterase [1], `C/C(=C\C(=O)N[C@H]1CC[C@@]2(C)[C@@H](CC[C@@H]3[C@@H]2CC[C@]2(C)[C@@H]([C@H](C)N(C)C)CC[C@@H]32)C1)C(C)C` yielded a Ki of 9.05 µM. The molecule further returned a 50% inhibitory concentration (IC50) against Acetylcholinesterase [2] of 50.6 µM.
